# Test results reported in patent US20100298141A1, “SUBSTITUTED PYRIDINE N-OXIDE HERBICIDES” (E. I. DU PONT DE NEMOURS AND COMPANY, priority 2007, published 2010).
# Columns and labels:
# downy brome = assay: Test C pre-/postemergence test; type: in vivo, Bromus tectorum; conditions: for Plant response rating, Bromegrass, Downy: scale 0 to 100, 0 no effect, 100 complete control
# Method in brief: (§1)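 Test chemicals were formulated with surfactant in a non-phytotoxic solvent and sprayed both on freshly planted seeds (preemergence) and on 1- to 4-leaf plants of 2–18 cm (postemergence). Flooded-paddy pots received compound directly into 3 cm of standing water, maintained for the test.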
# barnyardgrass = assay: Test C flooded paddy test; type: in vivo, Echinochloa crus-galli; conditions: Flood
# Method in brief: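 Flooded 3 cm over soil; compound into paddy water; depth kept constant. Greenhouse 13–15 d.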
# wild oat = assay: Test C pre-/postemergence test; type: in vivo, Avena fatua; conditions: for Plant response rating, Oat, Wild: scale 0 to 100, 0 no effect, 100 complete control
# Method in brief: as §1
# Italian ryegrass = assay: Test C pre-/postemergence test; type: in vivo, Lolium multiflorum; conditions: for Plant response rating, Ryegrass, Italian: scale 0 to 100, 0 no effect, 100 complete control
# Method in brief: as §1
# velvetleaf [1] = assay: Test C pre-/postemergence test; type: in vivo, Abutilon theophrasti; conditions: Postemergence; for Plant response rating, Velvetleaf: scale 0 to 100, 0 no effect, 100 complete control
# Method in brief: as §1
# giant foxtail = assay: Test C pre-/postemergence test; type: in vivo, Setaria faberii; conditions: for Plant response rating, Foxtail, Giant: scale 0 to 100, 0 no effect, 100 complete control
# Method in brief: as §1
# catchweed bedstraw = assay: Test C pre-/postemergence test; type: in vivo, Galium aparine
# Method in brief: as §1
# woolly cupgrass = assay: Test C pre-/postemergence test; type: in vivo, Eriochloa villosa; conditions: for Plant response rating, Cupgrass, Woolly: scale 0 to 100, 0 no effect, 100 complete control
# Method in brief: as §1
# morningglory = assay: Test C pre-/postemergence test; type: in vivo, Ipomoea coccinea; conditions: for Plant response rating, Morningglory: scale 0 to 100, 0 no effect, 100 complete control
# Method in brief: as §1
# corn = assay: Test C pre-/postemergence test; type: in vivo, Zea mays; conditions: for Plant response rating, Corn: scale 0 to 100, 0 no effect, 100 complete control
# Method in brief: as §1
# cocklebur = assay: Test C pre-/postemergence test; type: in vivo, Xanthium strumarium; conditions: for Plant response rating, Cocklebur: scale 0 to 100, 0 no effect, 100 complete control
# Method in brief: as §1
# soybean = assay: Test C pre-/postemergence test; type: in vivo, Glycine max; conditions: for Soybean plant response rating: preemergence, scale 0 (no effect) to 100 (complete control); for Plant response rating, Soybean: scale 0 to 100, 0 no effect, 100 complete control
# Method in brief: as §1
# blackgrass = assay: Test C pre-/postemergence test; type: in vivo, Alopecurus myosuroides; conditions: for Plant response rating, Blackgrass: scale 0 to 100, 0 no effect, 100 complete control
# Method in brief: as §1
# green foxtail = assay: Test C pre-/postemergence test; type: in vivo, Setaria viridis; conditions: for Plant response rating, Foxtail, Green: scale 0 to 100, 0 no effect, 100 complete control
# Method in brief: as §1
# johnsongrass = assay: Test C pre-/postemergence test; type: in vivo, Sorghum halepense; conditions: for Plant response rating, Johnsongrass: scale 0 to 100, 0 no effect, 100 complete control
# Method in brief: as §1
# velvetleaf [2] = assay: Test A pre-/postemergence greenhouse test; type: in vivo, Abutilon theophrasti; conditions: for Velvetleaf plant response rating: 0 to 100 scale
# Method in brief: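 Sowing in loam/sand; same-day pre (directed soil spray) and post (foliar, 1–2 leaf, 2–10 cm) treatment with surfactant-containing non-phytotoxic solvent formulation; ~10 days in greenhouse; eye-scored injury against untreated plants.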
# [3] = 31 g ai/ha, Preemergence, scale 0 to 100
# [4] = 62 g ai/ha, preemergence, scale 0 (no effect) to 100 (complete control)
# [5] = preemergence, 125 g ai/ha, scale 0 (no effect) to 100 (complete control)
compound,measurement,setting,value
Cc1cc[n+]([O-])c([S+]([O-])Cc2c(C(F)(F)F)nn(C)c2OC(F)F)c1 (stereo not drawn) [Compound 1],"Bromegrass, Downy plant response rating",downy brome; [3],0
same,"Bromegrass, Downy plant response rating",downy brome; [4],50
same,"Plant response rating (0 to 100), Bromegrass, Downy","downy brome; Postemergence, 31 g ai/ha",0
same,"Plant response rating, Bromegrass, Downy","downy brome; Postemergence, 62 g ai/ha",0
same,"Plant response rating, Bromegrass, Downy","downy brome; Postemergence, 125 g ai/ha",0
same,"Plant response rating, Bromegrass, Downy","downy brome; Postemergence, 250 g ai/ha",0
same,"Plant response rating (0 to 100), Bromegrass, Downy","downy brome; Preemergence, 250 g ai/ha",100
same,"Bromegrass, Downy plant response rating",downy brome; [5],100
same,"Plant response rating, Barnyardgrass","barnyardgrass; 31 g ai/ha, scale 0 to 100 (0 no effect, 100 complete control)",0
same,"Plant response rating, Barnyardgrass","barnyardgrass; 62 g ai/ha, scale 0 to 100, 0 no effect, 100 complete control, 13 to 15 days",0
same,"Plant response rating, Barnyardgrass","barnyardgrass; 125 g ai/ha, scale 0 to 100, 0 no effect, 100 complete control, 13 to 15 days",80
same,"Plant response rating, Barnyardgrass","barnyardgrass; 250 g ai/ha, scale 0 to 100 (0 no effect, 100 complete control)",80
same,"Oat, Wild plant response rating",wild oat; [3],50
same,"Oat, Wild plant response rating",wild oat; [4],85
same,"Plant response rating (0 to 100), Oat, Wild","wild oat; Postemergence, 31 g ai/ha",0
same,"Plant response rating, Oat, Wild","wild oat; Postemergence, 62 g ai/ha",0
same,"Plant response rating, Oat, Wild","wild oat; Postemergence, 125 g ai/ha",0
same,"Plant response rating, Oat, Wild","wild oat; Postemergence, 250 g ai/ha",0
same,"Plant response rating (0 to 100), Oat, Wild","wild oat; Preemergence, 250 g ai/ha",100
same,"Oat, Wild plant response rating",wild oat; [5],95
same,"Ryegrass, Italian plant response rating",Italian ryegrass; [3],60
same,"Ryegrass, Italian plant response rating",Italian ryegrass; [4],100
same,"Plant response rating (0 to 100), Ryegrass, Italian","Italian ryegrass; Postemergence, 31 g ai/ha",0
same,"Plant response rating (0 to 100), Ryegrass, Italian","Italian ryegrass; Postemergence, 62 g ai/ha",0
same,"Plant response rating, Ryegrass, Italian","Italian ryegrass; Postemergence, 125 g ai/ha",0
same,"Plant response rating, Ryegrass, Italian","Italian ryegrass; Postemergence, 250 g ai/ha",30
same,"Plant response rating (0 to 100), Ryegrass, Italian","Italian ryegrass; Preemergence, 250 g ai/ha",100
same,"Ryegrass, Italian plant response rating",Italian ryegrass; [5],100
same,"Plant response rating (0 to 100), Velvetleaf",velvetleaf [1]; 31 g ai/ha,10
same,"Plant response rating (0 to 100), Velvetleaf",velvetleaf [1]; 62 g ai/ha,40
same,"Plant response rating, Velvetleaf",velvetleaf [1]; 125 g ai/ha,45
same,"Plant response rating, Velvetleaf",velvetleaf [1]; 250 g ai/ha,60
same,"Foxtail, Giant plant response rating",giant foxtail; [3],60
same,"Foxtail, Giant plant response rating",giant foxtail; [4],70
same,"Plant response rating (0 to 100), Foxtail, Giant","giant foxtail; Postemergence, 31 g ai/ha",0
same,"Plant response rating, Foxtail, Giant","giant foxtail; Postemergence, 62 g ai/ha",0
same,"Plant response rating, Foxtail, Giant","giant foxtail; Postemergence, 125 g ai/ha",45
same,"Plant response rating, Foxtail, Giant","giant foxtail; Postemergence, 250 g ai/ha",60
same,"Plant response rating (0 to 100), Foxtail, Giant","giant foxtail; Preemergence, 250 g ai/ha",100
same,"Foxtail, Giant plant response rating",giant foxtail; [5],100
same,Galium plant response rating,catchweed bedstraw; [3],70
same,Galium plant response rating,catchweed bedstraw; [4],85
same,"Plant response rating (0 to 100), Galium","catchweed bedstraw; Preemergence, 250 g ai/ha",98
same,Galium plant response rating,catchweed bedstraw; [5],98
same,"Cupgrass, Woolly plant response rating",woolly cupgrass; [3],40
same,"Cupgrass, Woolly plant response rating",woolly cupgrass; [4],60
same,"Plant response rating (0 to 100), Cupgrass, Woolly","woolly cupgrass; Postemergence, 31 g ai/ha",0
same,"Plant response rating, Cupgrass, Woolly","woolly cupgrass; Postemergence, 62 g ai/ha",0
same,"Plant response rating, Cupgrass, Woolly","woolly cupgrass; Postemergence, 125 g ai/ha",40
same,"Plant response rating, Cupgrass, Woolly","woolly cupgrass; Postemergence, 250 g ai/ha",70
same,"Plant response rating (0 to 100), Cupgrass, Woolly","woolly cupgrass; Preemergence, 250 g ai/ha",90
same,"Cupgrass, Woolly plant response rating",woolly cupgrass; [5],90
same,Morningglory plant response rating,morningglory; [3],85
same,Morningglory plant response rating,morningglory; [4],100
same,"Plant response rating (0 to 100), Morningglory","morningglory; Postemergence, 31 g ai/ha",40
same,"Plant response rating, Morningglory","morningglory; Postemergence, 62 g ai/ha",40
same,"Plant response rating, Morningglory","morningglory; Postemergence, 125 g ai/ha",45
same,"Plant response rating, Morningglory","morningglory; Postemergence, 250 g ai/ha",75
same,"Plant response rating (0 to 100), Morningglory","morningglory; Preemergence, 250 g ai/ha",100
same,Morningglory plant response rating,morningglory; [5],100
same,Corn plant response rating,corn; [3],50
same,Corn plant response rating,corn; [4],60
same,"Plant response rating (0 to 100), Corn","corn; Postemergence, 31 g ai/ha",0
same,"Plant response rating, Corn","corn; Postemergence, 62 g ai/ha",0
same,"Plant response rating, Corn","corn; Postemergence, 125 g ai/ha",0
same,"Plant response rating, Corn","corn; Postemergence, 250 g ai/ha",5
same,"Plant response rating (0 to 100), Corn","corn; Preemergence, 250 g ai/ha",98
same,Corn plant response rating,corn; [5],95
same,Cocklebur plant response rating,cocklebur; [3],0
same,Cocklebur plant response rating,cocklebur; [4],0
same,"Plant response rating (0 to 100), Cocklebur","cocklebur; Postemergence, 31 g ai/ha",0
same,"Plant response rating, Cocklebur","cocklebur; Postemergence, 62 g ai/ha",0
same,"Plant response rating, Cocklebur","cocklebur; Postemergence, 125 g ai/ha",0
same,"Plant response rating, Cocklebur","cocklebur; Postemergence, 250 g ai/ha",0
same,"Plant response rating (0 to 100), Cocklebur","cocklebur; Preemergence, 250 g ai/ha",60
same,Cocklebur plant response rating,cocklebur; [5],0
same,Soybean plant response rating,soybean; 62 g ai/ha,100
same,"Plant response rating (0 to 100), Soybean","soybean; Postemergence, 31 g ai/ha",60
same,"Plant response rating (0 to 100), Soybean","soybean; Postemergence, 62 g ai/ha",85
same,"Plant response rating, Soybean","soybean; Postemergence, 125 g ai/ha",85
same,"Plant response rating, Soybean","soybean; Postemergence, 250 g ai/ha",90
same,"Plant response rating (0 to 100), Soybean","soybean; Preemergence, 250 g ai/ha",100
same,Soybean plant response rating,soybean; 125 g ai/ha,100
same,Blackgrass plant response rating,blackgrass; [3],70
same,Blackgrass plant response rating,blackgrass; [4],100
same,"Plant response rating (0 to 100), Blackgrass","blackgrass; Postemergence, 31 g ai/ha",0
same,"Plant response rating, Blackgrass","blackgrass; Postemergence, 62 g ai/ha",0
same,"Plant response rating, Blackgrass","blackgrass; Postemergence, 125 g ai/ha",0
same,"Plant response rating, Blackgrass","blackgrass; Postemergence, 250 g ai/ha",0
same,"Plant response rating (0 to 100), Blackgrass","blackgrass; Preemergence, 250 g ai/ha",100
same,Blackgrass plant response rating,blackgrass; [5],100
same,"Foxtail, Green plant response rating",green foxtail; [3],100
same,"Foxtail, Green plant response rating",green foxtail; [4],100
same,"Plant response rating (0 to 100), Foxtail, Green","green foxtail; Postemergence, 31 g ai/ha",0
same,"Plant response rating, Foxtail, Green","green foxtail; Postemergence, 62 g ai/ha",0
same,"Plant response rating, Foxtail, Green","green foxtail; Postemergence, 125 g ai/ha",30
same,"Plant response rating, Foxtail, Green","green foxtail; Postemergence, 250 g ai/ha",60
same,"Plant response rating (0 to 100), Foxtail, Green","green foxtail; Preemergence, 250 g ai/ha",100
same,"Foxtail, Green plant response rating",green foxtail; [5],100
same,Johnsongrass plant response rating,johnsongrass; [3],80
same,Johnsongrass plant response rating,johnsongrass; [4],90
same,"Plant response rating (0 to 100), Johnsongrass","johnsongrass; Postemergence, 31 g ai/ha",0
same,"Plant response rating, Johnsongrass","johnsongrass; Postemergence, 62 g ai/ha",0
same,"Plant response rating, Johnsongrass","johnsongrass; Postemergence, 125 g ai/ha",0
same,"Plant response rating, Johnsongrass","johnsongrass; Postemergence, 250 g ai/ha",10
same,"Plant response rating (0 to 100), Johnsongrass","johnsongrass; Preemergence, 250 g ai/ha",100
same,Johnsongrass plant response rating,johnsongrass; [5],100
same,Velvetleaf plant response rating,"velvetleaf [2]; Postemergence, 125 g ai/ha, 0 is no effect, 100 is complete control",50
same,Velvetleaf plant response rating,"velvetleaf [2]; Postemergence, 500 g ai/ha, 0 is no effect, 100 is complete control",70
same,Velvetleaf plant response rating,"velvetleaf [2]; Preemergence, 125 g ai/ha, 0 no effect, 100 complete control",30
same,"Plant response rating, Velvetleaf","velvetleaf [2]; Preemergence, 500 g ai/ha, 0 to 100 scale where 0 is no effect and 100 is complete control",100
